Assays:
[1] = biological target: IRAK4 (Homo sapiens (Human), UniProt Q9NWZ3); experiment: Z'-LYTE assay (ThermoFisher) against IRAK4; format: biochemical; settings: IRAK4/Ser/Thr 07, 60 minutes at room temperature
Protocol: To measure the 050 values of compounds herein against IRAK4, a Z′-LYTE assay (ThermoFisher) was used. Briefly, 2.5 μL. of different concentrations of the compounds in 1% DMSO were added to 2.4 μL kinase buffer (50 mM HEPES pH 7.5, 0.01% BRIJ-35, 10 mM MgCl2, 1 mM EGTA) in each well of a 384-well plate (Corning Cat. #3676). 5 μL of 2×IRAK4/Ser/Thr 07 mixture (prepared in 50 mM HEPES pH 7.5, 0.01% BRIJ-35, 10 mM MnCl2, 2 mM OTT, and 0.02% NaN3) and 2.5 μL of 4×ATP solution (4×ATP, 50 mM HEPES, pH 7.5, 0.01% BRIJ-35, 10 mM MgCl2, 1 mM EGTA) were added to each well. The plate was shaken for 30 seconds, and then incubated at room temperature for 60 minutes. 5 μL of a 1:100000 dilution of Development Reagent A was added to each well. The plate was shaken for 30 seconds and incubated for 60 minutes at room temperature. The plate was subsequently read on a fluorescence plate reader, and the emissions ratio was calculated to determine the ratio of Ser/Thr 07 phosphorylated by the reaction. Emissions Ratio=Coumarin Emission (443 nm)/Flourescein Emission (520 nm).

[2] = biological target: IRAK1 (Homo sapiens (Human), UniProt P51617); experiment: Adapta Universal Kinase Assay (ThermoFisher) against IRAK1; format: biochemical; settings: IRAK1/Histone H3 (1-20) peptide, 60 minutes at room temperature
IRAK1, sequence (P51617 whole entry): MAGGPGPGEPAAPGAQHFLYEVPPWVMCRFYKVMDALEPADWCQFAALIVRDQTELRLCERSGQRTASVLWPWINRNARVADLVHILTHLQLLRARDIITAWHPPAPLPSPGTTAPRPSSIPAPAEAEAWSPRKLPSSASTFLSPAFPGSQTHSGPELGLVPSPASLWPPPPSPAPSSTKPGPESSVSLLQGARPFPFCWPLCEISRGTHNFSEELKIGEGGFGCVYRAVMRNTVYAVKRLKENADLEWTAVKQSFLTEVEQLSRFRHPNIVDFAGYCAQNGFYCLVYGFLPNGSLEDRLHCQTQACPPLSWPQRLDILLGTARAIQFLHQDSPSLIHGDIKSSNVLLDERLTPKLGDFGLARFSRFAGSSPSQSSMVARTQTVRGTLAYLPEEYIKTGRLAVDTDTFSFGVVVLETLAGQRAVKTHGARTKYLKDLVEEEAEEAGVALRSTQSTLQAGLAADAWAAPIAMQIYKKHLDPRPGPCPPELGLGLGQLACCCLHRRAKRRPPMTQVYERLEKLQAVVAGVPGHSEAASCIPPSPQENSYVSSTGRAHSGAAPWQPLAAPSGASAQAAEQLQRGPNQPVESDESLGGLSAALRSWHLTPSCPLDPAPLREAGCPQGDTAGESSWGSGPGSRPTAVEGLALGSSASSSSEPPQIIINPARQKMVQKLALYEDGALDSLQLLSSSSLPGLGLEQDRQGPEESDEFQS
Protocol: To measure the IC50 values of the compounds herein against IRAK1, the Adapta Universal Kinase Assay (ThermoFisher) was used. Briefly, 100 nL of different concentrations of the compounds in 100% DMSO were added to each well of a 384-well plate (Corning Cat. #4512). 2.4 μL of 30 mM HEPES, 2.5 μL of 4×ATP solution (in water), and 5 μL of 2× IRAK1/Histone H3 (1-20) peptide mixture (prepared in 50 mM HEPES pH 7.5, 0.01% BRIJ-35, 10 mM MgCl2, 1 mM EGTA) were added to each well. The plate was shaken for 30 seconds and centrifuged for 1 minute at 1000×g. The plate was then incubated at room temperature for 60 minutes. 5 μL of Detection Mix was added to each well. The plate was shaken for 30 seconds and centrifuged for 1 minute at 1000×g. The plate was then incubated at room temperature for 60 minutes. The plate was subsequently read on a fluorescence plate reader, and the emissions ratio was calculated to determine the ratio of ATP to ADP. Emissions Ratio=AF647 Emission (665 nm)/Europium Emission (615 nm).

IRAK4, sequence (Q9NWZ3 whole entry): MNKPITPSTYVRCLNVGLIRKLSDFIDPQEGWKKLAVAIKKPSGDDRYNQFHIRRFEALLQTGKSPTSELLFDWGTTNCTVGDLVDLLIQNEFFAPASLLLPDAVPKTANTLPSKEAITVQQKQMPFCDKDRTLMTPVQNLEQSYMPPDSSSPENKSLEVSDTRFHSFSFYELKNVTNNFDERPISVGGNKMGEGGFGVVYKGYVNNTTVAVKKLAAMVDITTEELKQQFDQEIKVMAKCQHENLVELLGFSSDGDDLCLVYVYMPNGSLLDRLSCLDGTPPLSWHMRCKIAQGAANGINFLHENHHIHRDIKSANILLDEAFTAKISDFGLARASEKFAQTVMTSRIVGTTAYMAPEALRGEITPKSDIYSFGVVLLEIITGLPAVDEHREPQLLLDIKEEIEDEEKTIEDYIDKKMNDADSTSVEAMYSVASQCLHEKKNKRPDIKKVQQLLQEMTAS

Row | SMILES | IC50 [1] | IC50 [2]
1 | C=CC(=O)N1CCC[C@@H](C(=O)Nc2ccc(NC(=O)c3cccc(-c4ccn[nH]4)n3)cc2F)C1 [Compound 033, (R)-N-(4-(1 acryloylpiperidine-3-carboxamido)-3-fluorophenyl)-6-(1H-pyrazol-5-yl)picolinamide] | 2510 nM | 74.2 nM
2 | C=CC(=O)N[C@H]1C[C@@H](C(=O)Nc2ccc(NC(=O)c3cccc(-c4ccn[nH]4)n3)nc2)CN(CC(F)(F)F)C1 [Compound 038, N-(5-((3R,5S)-5-acrylamido-1-(2,2,2-trifluoroethyl)piperidine-3-carboxamido)pyridin-2-yl)-6-(1H-pyrazol-5-yl)picolinamide] | > 10000 nM | 12.1 nM
3 | C=CC(=O)N[C@@H]1CNCC(C(=O)Nc2ccc(NC(=O)c3cccc(-c4ccn[nH]4)n3)cc2F)C1 (stereo partly shown) [Compound 007] | > 10000 nM | 150 nM
4 | C=CC(=O)N1CCC[C@@H](C(=O)Nc2ccc(NC(=O)c3cccc(-c4cnoc4)n3)cc2F)C1 [Compound 034, (R)-N-(4-(1-acryloylpiperidine-3-carboxamido)-3-fluorophenyl)66-(isoxazol-4-yl)picolinamide] | 2010 nM | 344 nM
5 | C=CC(=O)N[C@@H]1CNC[C@H](C(=O)Nc2ccc(NC(=O)c3cccc(-c4ccn[nH]4)n3)nc2)C1 [Compound 006, N-(5-((3R,5S)-5-acrylamidopiperidine-3-carboxamido)pyridin-2-yl)-6-(1H-pyrazol-5-yl)-picolinamide] | 4000 nM | 14 nM
6 | C=CC(=O)N[C@H]1C[C@@H](C(=O)Nc2ccc(NC(=O)c3cccc(-c4ccn[nH]4)n3)nc2)CN(CC(F)F)C1 [Compound 039, N-(5-((3R,5S)-5-acrylamido-1-(2,2-difluorethyl)piperidine-3-carboxamido)pyridin-2-yl)-6-(1H-pyrazol-5-yl)picolinamide] | > 10000 nM | 14.9 nM
7 | C=CC(=O)N[C@@H]1CCCC(C(=O)Nc2ccc(NC(=O)c3cccc(-c4ccn[nH]4)n3)cc2C)C1 (stereo partly shown) [Compound 003] | > 10000 nM | 671 nM
8 | C=CC(=O)NC12CC(C(=O)Nc3ccc(NC(=O)c4cccc(-c5ccn[nH]5)n4)cc3F)(C1)C2 [Compound 016] | 9930 nM | 301 nM
9 | C=CC(=O)N1CC2(CC(n3cc(-c4ccc(NC(=O)c5cccc(-c6cnoc6)n5)nc4)nn3)C2)C1 [Compound 024, N-(5-(1-(2-acryloyl-2-azaspiro[3,3]heptan-6-yl)-1H-1,2,3-triazol-4-yl)pyridin-2-yl)-6-(isoxazol-4-yl)picolinamide] | 3330 nM | 612 nM
10 | C=CC(=O)N[C@@H]1CCC[C@H](C(=O)Nc2ccc(NC(=O)c3cccc(-c4ccn[nH]4)n3)nc2)C1 [Compound 002, N-(5-((1S,3R)-3-acrylamidocyclohexane-1-carboxamido)pyridin-2-yl)-6-(1H-pyrazol-5-yl)-picolinamide] | > 10000 nM | 257 nM
11 | C=CC(=O)N1CCC[C@@H](C(=O)Nc2ccc(NC(=O)c3cccc(-c4ccn[nH]4)n3)nc2)C1 [Compound 028, (R)-N-(5-(1-acryloylpiperidine-3-carboxamido)pyridin-2-yl)-6-(1H-pyrazol-5-yl)picolinamide] | 722 nM | 12.5 nM
12 | C=CC(=O)N1CCC[C@H](C(=O)Nc2ccc(NC(=O)c3cccc(-c4ccn[nH]4)n3)nc2)C1 [Compound 027, (S)-N-(5-(1-acryloylpiperidine-3-carboxamido)pyridin-2-yl)-6-(1H-pyrazol-5-yl)picolinamide] | 1870 nM | 6.37 nM
13 | C=CC(=O)N1CCC[C@H](C(=O)Nc2ccc(NC(=O)c3cccc(-c4cnoc4)n3)cc2F)C1 [Compound 032, (S)-N-(4-(1-acryloylpiperidine-3-carboxamido)-3-fluorophenyl)-6-(isoxazol-4-yl)picolinamide] | > 10000 nM | 1190 nM
14 | C=CC(=O)N1CCC[C@H](C(=O)Nc2ccc(NC(=O)c3cccc(-c4cnoc4)n3)nc2)C1 [Compound 029, (S)-N-(5-(1-acryloylpiperidine-3-carboxamido)pyridin-2-yl)-6-(isoxazol-4-yl)picolinamide] | > 10000 nM | 658 nM

Other lines, results leading:

Row | IC50 [1] | IC50 [2] | SMILES
15 | > 10000 nM | 18.5 nM | C=CC(=O)N[C@H]1C[C@@H](C(=O)Nc2ccc(NC(=O)c3cccc(-c4ccn[nH]4)n3)nc2)CN(C)C1 [Compound 013, N-(5-((3R,5S)-5-acrylamido-1-methylpiperidine-3-carboxamido)pyridin-2-yl)-6-(1H-pyrazol-5-yl)picolinamide]
16 | 1110 nM | 40.1 nM | C=CC(=O)N1CCC[C@H](C(=O)Nc2ccc(NC(=O)c3cccc(-c4ccn[nH]4)n3)cc2F)C1 [Compound 031, (S)-N-(4-(1-acryloylpiperidine-3-carboxamido)-3-fluorophenyl)-6-(1H-pyrazol-5-yl)picolinamide]
17 | 3330 nM | 399 nM | C=CC(=O)N1CCC[C@@H](C(=O)Nc2ccc(NC(=O)c3cccc(-c4cnoc4)n3)nc2)C1 [Compound 030, (R)-N-(5-(1-acryloylpiperidine-3-carboxamido)pyridin-2-yl)-6-(isoxazol-4-yl)picolinamide]
18 | > 10000 nM | 129 nM | C=CC(=O)N[C@@H]1CCCC(C(=O)Nc2ccc(NC(=O)c3cccc(-c4ccn[nH]4)n3)cc2F)C1 (stereo partly shown) [Compound 001]
19 | > 10000 nM | 68.1 nM | C=CC(=O)N[C@@H]1CCC[C@H](C(=O)Nc2ccc(NC(=O)c3cccc(-c4ccn[nH]4)n3)cc2)C1 [Compound 026, N-(4-((1 S,3R)-3-acrylamidocyclohexane-1-carboxamido)phenyl)-6-(1H-pyrazol-5-yl)-picolinamide]
20 | > 10000 nM | 189 nM | C=CC(=O)N[C@H]1CCCC(C(=O)Nc2ccc(NC(=O)c3cccc(-c4ccn[nH]4)n3)nc2)C1 (stereo partly shown) [Compound 005]
